Calls of active or inactive are those of the source. The calls are words filed in the database; no cut-off is given here.
Experiments:
Neuroblastoma cell = assay: Antiproliferative activity against human Neuroblastoma cell assessed as inhibition of cell growth incubated for 60 hrs by CCK-8 method; type: functional, cell-based
[1] = Antiproliferative activity against human Embryonic lung cell assessed as inhibition of cell growth incubated for 60 hrs by CCK-8 method; type: toxicity, cell-based
N2a [2] = assay: Antitumor activity against mouse N2a cells implanted in female ICR mouse model assessed as reduction in tumor weight at 20 mg/kg, ip measured upto 8 days (reference value: 0.9 +/-0.26 g); type: functional; settings: time <= 8 day
N2a [3] = assay: Antitumor activity against mouse N2a cells implanted in female ICR mouse model assessed as tumor inhibition rate at 20 mg/kg, ip measured upto 8 days relative to control; type: functional; parameters: scale not given: the % may be the effect or the level left; settings: time <= 8 day
N2a [4] = assay: Antitumor activity against mouse N2a cells implanted in female ICR mouse model assessed as change in body weight at 20 mg/kg, ip measured upto 8 days (reference value: 25.54 +/-2.19 g); type: functional; settings: time <= 8 day
[5] = Toxicity in female ICR mouse assessed as change in organ coefficient of heart at 20 mg/kg, ip […] (reference value: 0.006+/-0.002); type: organism-based; settings: in vivo
[6] = Toxicity in female ICR mouse assessed as change in organ coefficient of liver at 20 mg/kg, ip […] (reference value: 0.058+/-0.010); type: organism-based; settings: in vivo
[7] = Toxicity in female ICR mouse assessed as change in organ coefficient of spleen at 20 mg/kg, ip […] (reference value: 0.006+/-0.002); type: organism-based; settings: in vivo
[8] = Toxicity in female ICR mouse assessed as change in organ coefficient of lung at 20 mg/kg, ip […] (reference value: 0.007+/-0.001); type: organism-based; settings: in vivo
[9] = Toxicity in female ICR mouse assessed as change in organ coefficient of kidney at 20 mg/kg, ip […] (reference value: 0.007); type: organism-based; settings: in vivo

Row | Compound | Activity (Neuroblastoma cell) | Activity [1] | Activity (N2a [2]) [g] | Activity (N2a [3]) [%] | Activity (N2a [4]) [g] | Activity [5] | Activity [6] | Activity [7] | Activity [8] | Activity [9]
1 | N#C[Se]CCCOc1ccc2cc(C(=O)N3N=C(c4ccc(Br)cc4)CC3c3ccc(F)cc3)c(=O)oc2c1 (stereo not given) | Active | Non-toxic |  |  |  |  |  |  |  | 
2 | O=P1(N(CCCl)CCCl)NCCCO1 (stereo not given) [CYCLOPHOSPHAMIDE ANHYDROUS] |  |  | 0.32 | 64.6 | 27.2 | 0.006 | 0.059 | 0.004 | 0.007 | 0.007
